Laboratory results as given in paper PMC12735739, “Bromo Analogues of Active 3,4,5,4′-Tetramethoxy-trans-stilbene (DMU-212)—A New Path of Research to Anticancer Agents” (Molecules, 2025).
Values after ≈ are worked out from the molar mass of the structure shown.

Key:
[1] = test system: ovarian cancer 2D culture; set-up: method as in PMID 27585955; details: 2D culture and liposomal drug delivery system; cited from earlier work
[2] = test system: SK-OV-3 (3D model); set-up: method as in PMID 27585955; details: 3D spheroid model; cited from earlier work
[3] = test system: patient P3 cell lines (3D model, patient-derived ovarian cancer); set-up: method as in PMID 27585955; details: 3D spheroid model; cited from earlier work
[4] = test system: Jurkat human acute T-cell leukaemia; assay: MTT cell viability assay, Jurkat; assay type: cell-based; details: MTT test, 72 h of action, read-out: IC50, Tumour Cell Lines, Jurkat Human Acute T-Cell Leukaemia
Method: (§1) The MTT cell viability assay was performed according to a previously reported protocol. Briefly, adherent cells were seeded at a density of 5000 cells per 100 µL, and suspension cells at 25,000 cells per 100 µL, in 96-well plates and incubated overnight. Subsequently, test compounds were added in 100 µL of culture medium, followed by incubation for 72 h. After treatment, 20 µL of MTT solution (5 mg/mL, Sigma-Aldrich, Burlington, MA, USA) was added to each well. The resulting formazan crystals were dissolved in DMSO (Sigma-Aldrich, Burlington, MA, USA), and absorbance was recorded using a BioTek ELx800 Absorbance Reader (BioTek Instruments, Inc., Vinooski, VT, USA). IC50 values were calculated by nonlinear regression analysis using GraphPad Prism (version 9.1.1, GraphPad Software, Boston, MA, USA). Experiments were conducted in triplicate. Human leukemia Jurkat T-cells, human glioblastoma U251 cells were kindly provided by Collection at the Institute of Molecular Biology and Genetics, National Academy of Sciences of Ukraine (Kyiv, Ukraine). Murine macrophages of J774.2 line were a generous gift from Prof. Sir John Vane (William Harvey Research Institute, London, UK) provided via Prof. Janusz Marcinkiewicz (Jagiellonian University Medical College, Krakow, Poland). Human colorectal adenocarcinoma cell line HT-29 was kindly provided by Prof. Anna Bielawska (Department of Biotechnology, Faculty of Pharmacy, Medical University of Bialystok, Poland). Murine BALB/3T3 fibroblasts was obtained from the Cell Collection of the R.E. Kavetsky Institute of Experimental Pathology, Oncology and Radiobiology (Kyiv, Ukraine).

[5] = test system: U251 human malignant glioblastoma; assay: MTT cell viability assay, U251; assay type: cell-based; details: U-251, MTT test, 72 h of action, read-out: IC50, Tumour Cell Lines, U251 Human Malignant Glioblastoma
Method: as §1

[6] = test system: HT-29 human colorectal carcinoma; assay: MTT cell viability assay, HT-29; assay type: cell-based; details: MTT test, 72 h of action, read-out: IC50, Tumour Cell Lines, HT-29 Human Colorectal Carcinoma
Method: as §1

[7] = test system: Balb-3T3 mice fibroblast; assay: MTT cell viability assay, Balb-3T3; assay type: cell-based; details: Mus musculus, MTT test, 72 h of action, read-out: IC50, Pseudo-Normal Cell Lines, Balb-3T3 Mice Fibroblast
Method: as §1

[8] = test system: J744.2 mice macrophage-like cells; assay: MTT cell viability assay, J744.2; assay type: cell-based; details: Mus musculus; MTT test, 72 h of action; read-out: IC50, Pseudo-Normal Cell Lines, J744.2 Mice Macrophage-Like Cells
Method: as §1

[9] = test system: Mucor indicus; set-up: method as in PMID 30790326; details: cited from earlier work
[10] = test system: human lung cancer cells (A549); set-up: method as in PMID 15464834, doi:10.1177/1934578X0700200419; details: read-out: IC50 in cultured human lung cancer cells (A549); cited from earlier work
[11] = test system: salmon sperm DNA; assay: DNA intercalation assay (methyl green displacement method); assay type: binding; details: 1 and 10 μM; for percentage of methyl green dye replaced from its complex with DNA: range over both doses; for affinity for DNA: methyl green displacement, in words
Method: To investigate the potential mechanisms of cell death induced by the studied derivative, we evaluated apoptosis using the fluorescence microscopy of cells stained with Hoechst-33342 and Ethidium Bromide (EtBr), as well as spectroscopic and DNA/methyl green displacement assays. Methyl green is a cationic dye that binds preferentially to the phosphate backbone of DNA (primarily in the major groove). If a compound (an intercalator or groove-binding agent) is added, it can compete with methyl green for binding to DNA. The higher the percentage of substituted methyl green, the stronger the compound interacts with DNA. Intercalation is the key feature of clinically used antitumor drugs, e.g., doxorubicin (DOX). DOX displaced 41.62–45.52% of methyl green from its complex with DNA (Figure 10). Another intercalator, EtBr, replaced 42.12–47.35% of methyl green from its complex with DNA.
A 485 μL aliquot of salmon sperm DNA (50 μg/mL, Sigma-Aldrich, Burlington, MA, USA) was incubated with 15 μL of methyl green solution (1 mg/mL, Sigma-Aldrich, Burlington, MA, USA) at 37 °C for 1 h. Subsequently, 500 μL of the test compounds, doxorubicin, or ethidium bromide (each at final concentrations of 1 μM and 10 μM) was added to the preformed methyl green–DNA complex. The samples were further incubated at 37 °C for 2 h in the dark. Absorbance was then recorded at 630 nm. GraphPad Prism (version 9.1.1, GraphPad Software, Boston, MA, USA) was used for the results analysis. Experiments were conducted in triplicate. Doxorubicin and ethidium bromide were purchased from Sigma-Aldrich, USA.

[12] = test system: Jurkat cells; assay: Fluorescent microscopy of Jurkat cells (Hoechst 33342/EtBr staining); assay type: cell-based, human; details: 0.5 µM, 24 h
Method: Jurkat cells were seeded in 24-well plates at a density of 250,000 cells/mL and incubated overnight prior to treatment. Cells were then treated for 24 h with compounds 4, 7, and 8 (0.5 µM) or doxorubicin (0.5 µM) as a positive control. Following treatment, cells were stained with Hoechst 33342 (0.2–0.5 µg/mL; Sigma-Aldrich, USA) and ethidium bromide (EtBr, 1 µg/mL). Fluorescence imaging was performed using a LIM-400 microscope (LABEX INSTRUMENT LIMITED, Ningbo, China) equipped with an MTR3CCD camera. Images were captured and analysed using ImageView software (version 4.11.21522.20221011).

[13] = test system: pancreas BXPC-3; set-up: method as in PMID 15943482; details: cited from earlier work
[14] = test system: neuroblast SK-N-SH; set-up: method as in PMID 15943482; details: cited from earlier work
[15] = test system: lung-NSC NCI-H460; set-up: method as in PMID 15943482; details: cited from earlier work
[16] = test system: prostate DU-145; set-up: method as in PMID 15943482; details: cited from earlier work
[17] = test system: Staphylococcus aureus 209P; set-up: method as in PMID 37298957; details: in words; cited from earlier work
[18] = test system: P450 CYP1B1 isoform; set-up: method as in PMID 28632937; details: read-out: IC50 against the P450 CYP1B1 isoform; cited from earlier work
[19] = test system: HeLa, MDA-MB-231, and MCF-7; set-up: method as in PMID 32171988; details: in words; cited from earlier work
[20] = test system: cervical cancer HeLa; set-up: method as in PMID 28669347; details: cited from earlier work
[21] = test system: glioblastoma U87; set-up: method as in PMID 28669347; details: cited from earlier work

3-hydroxy-3,4,5,4′-tetramethoxy-trans-stilbene [DMU-214]
IC50 [1]: 0.022 µM | IC50 [2]: 2.9 to 14.1 µM | IC50 [3]: 0.5 to 22.9 µM

COc1cc(/C=C/c2ccc(Br)cc2)cc(OC)c1OC [Compound 1, 4-bromo-3′,4′,5′-trimethoxy-trans-stilbene]
IC50 [4]: 2.26 µM | IC50 [5]: > 100 µM | IC50 [6]: > 100 µM | IC50 [7]: 3.2 µM | IC50 [8]: 6.63 µM | MIC toward Mucor indicus [9]: 25 mg/L (≈ 71.6 µM) | IC50 [10]: 6.36 µM

COc1cc(/C=C/c2cc(OC)c(OC)c(OC)c2)cc(Br)c1OC [Compound 2, 3-bromo-3′,4′,5′,4,5-pentamethoxy-trans-stilbene]
IC50 [4]: > 100 µM | IC50 [5]: > 100 µM | IC50 [6]: > 100 µM | IC50 [7]: 72.8 µM | IC50 [8]: 7.93 µM

COc1cc(/C=C/c2cc(Br)c(OC)c(Br)c2)cc(OC)c1OC [Compound 3, 3,5-dibromo-3′,4′,5′,4-tetramethoxy-trans-stilbene]
IC50 [4]: > 100 µM | IC50 [5]: > 100 µM | IC50 [6]: > 100 µM | IC50 [7]: 76.4 µM | IC50 [8]: 20.4 µM

COc1ccc(/C=C/c2cc(OC)c(OC)c(OC)c2)cc1Br [Compound 4, 3-bromo-3′,4′,5′,4-tetramethoxy-trans-stilbene]
IC50 [4]: 0.76 µM | IC50 [5]: > 100 µM | IC50 [6]: > 100 µM | IC50 [7]: 2.85 µM | IC50 [8]: 5.21 µM | percentage of methyl green dye replaced from its complex with DNA [11]: 1.87–5.98% | affinity for DNA [11]: low affinity for DNA | effect on cell morphology and viability (apoptosis, chromatin condensation, DNA fragmentation) [12]: induced moderate apoptosis | GI50 pancreas BXPC-3 [13]: 0.34 mg/L (≈ 0.897 µM) | GI50 neuroblast SK-N-SH [14]: 0.40 mg/L (≈ 1.05 µM) | GI50 lung-NSC NCI-H460 [15]: 0.36 mg/L (≈ 0.949 µM) | GI50 prostate DU-145 [16]: 0.45 mg/L (≈ 1.19 µM)

COc1cc(Br)c(/C=C/c2cc(OC)c(OC)c(OC)c2)cc1OC [Compound 5, 2-bromo-3′,4′,5′,4,5-pentamethoxy-trans-stilbene]
IC50 [4]: 68.5 µM | IC50 [5]: > 100 µM | IC50 [6]: > 100 µM | IC50 [7]: 51.7 µM | IC50 [8]: 71.1 µM

COc1cc(/C=C/c2cc(Br)cc(Br)c2)cc(OC)c1OC [Compound 6, 3,5-dibromo-3′,4′,5′-trimethoxy-trans-stilbene]
IC50 [4]: 65.3 µM | IC50 [5]: > 100 µM | IC50 [6]: > 100 µM | IC50 [7]: 3.75 µM | IC50 [8]: 9.97 µM

COc1ccc(/C=C/c2cc(OC)c(OC)c(OC)c2)cc1 [Compound 7, 3,4,5,4′-tetramethoxy-trans-stilbene]
IC50 [4]: 0.65 µM | IC50 [5]: > 100 µM | IC50 [6]: > 100 µM | IC50 [7]: 2.79 µM | IC50 [8]: 0.83 µM | percentage of methyl green dye replaced from its complex with DNA [11]: 1.87–5.98% | affinity for DNA [11]: low affinity for DNA | effect on cell morphology and viability (apoptosis, chromatin condensation, DNA fragmentation) [12]: markedly reduced viable cell numbers and enhanced nuclear fragmentation

COc1ccc(/C=C/c2cc(OC)c(OC)c(OC)c2)cc1OC [Compound 8, 3,3′,4,4’,5-pentamethoxy-trans-stilbene]
IC50 [4]: 0.82 µM | IC50 [5]: > 100 µM | IC50 [6]: > 100 µM | IC50 [7]: 5.04 µM | IC50 [8]: 3.83 µM | percentage of methyl green dye replaced from its complex with DNA [11]: 1.87–5.98% | affinity for DNA [11]: low affinity for DNA | effect on cell morphology and viability (apoptosis, chromatin condensation, DNA fragmentation) [12]: induced moderate apoptosis

COc1cc(OC)c(OC)cc1/C=C/c1ccc(OC)c(OC)c1 [Compound 10, 2,3’,4,4’,5-pentamethoxy-trans-stilbene]
IC50 [4]: 8.95 µM | IC50 [5]: > 100 µM | IC50 [6]: > 100 µM | IC50 [7]: > 100 µM | IC50 [8]: 91.6 µM

COc1cccc2c1C(=O)c1c(O)c3c(c(O)c1C2=O)C[C@@](O)(C(=O)CO)C[C@@H]3O[C@H]1C[C@H](N)[C@H](O)[C@H](C)O1 [DOX, doxorubicin, reference compound]
percentage of methyl green dye replaced from its complex with DNA [11]: 41.62–45.52% | effect on cell morphology and viability (apoptosis, chromatin condensation, DNA fragmentation) [12]: elicited a similar morphological disruption and chromatin fragmentation as compound 8 did

CC[n+]1c(-c2ccccc2)c2cc(N)ccc2c2ccc(N)cc21 [EtBr, Ethidium Bromide, reference compound]
percentage of methyl green dye replaced from its complex with DNA [11]: 42.12–47.35%

Oc1ccccc1/C=C/c1cc[n+](Cc2ccccc2Br)cc1.[Br-] [IX, 1-(2-bromobenzyl)-4-[(E)-2-(2-hydroxyphenyl)ethenyl]pyridinium bromide]
activity against Staphylococcus aureus 209P [17]: promising activity

CSc1ccc(/C=C/c2ccccc2SC)cc1 [VI, 2,4′-dimethylthio-trans-stilbene]
IC50 [18]: 0.026 µM

CCCCCCCCCCCCCCCC[N+](C)(CCCCCCCCCCCCCCCC)CNC(=O)c1cc(OC)c(OC)c(OC)c1/C=C/c1cc(OC)c(OC)c(OC)c1 [VII, quaternary amine derivative chloride of 4,5,6,3′,4′,5′-hexamethoxy-trans-stilbene]
antitumor activity against cancer lines compared with resveratrol and tamoxifen [19]: higher antitumor activity

COc1ccc(/C=C/c2ccc([N+](=O)[O-])cc2[N+](=O)[O-])c(O)c1 [VIII, 2-hydroxy-4-methoxy-2′,4′-ditro-trans-stilbene]
IC50 [20]: 6.97 µM | IC50 [21]: 55.8 µM

COc1ccc(/C=C(\C#N)c2cc(OC)c(OC)c(OC)c2)cc1OC [Z isomer of compound XII, reference compound]
IC50 [10]: 0.03 µM
